Drawing on PubChem BioAssay (NCI), this text covers TGI and GI50 for 15 molecules.

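These data come from cells grown in 96-well plates and exposed to compound for 48 hours at five concentrations. GI50 marks 50% less growth. At the TGI there is no net growth.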

Some test systems named below: A549 NSCLC; RXF 393 renal; SK-MEL-2 melanoma; M14 melanoma; COLO 205 colon; OVCAR-4 ovarian; NCI-H23 lung; SW-620 colon; SF-539 CNS; UACC-62 melanoma.
What all share (test): NCI anticancer screen, dose series, 48 h

`C=C(C(=O)C(=O)Oc1ccc(Cl)cc1)C(=O)c1ccc(C)cc1`: the TGI in the test with A549 NSCLC was greater than 100 µM; in the test on RXF 393 renal, 79.3 µM; with SK-MEL-2 melanoma, greater than 100 µM; in the test with M14 melanoma, 81.8 µM; with COLO 205 colon, greater than 100 µM; with OVCAR-4 ovarian, greater than 100 µM. Further, the TGI in the test with NCI-H23 lung was greater than 100 µM; in the test with SW-620 colon, 36.4 µM; in the test on SF-539 CNS, 34.7 µM; in the test on UACC-62 melanoma, greater than 100 µM.

For `C/C(CCOC1CCCCO1)=C(\C)[Si](C)(C)C` (stereo not drawn), the TGI in the test on A549 NSCLC, in the test with SK-MEL-2 melanoma, in the test with M14 melanoma, in the test on COLO 205 colon, with NCI-H23 lung and with SW-620 colon was greater than 100 µM each time. In addition, the TGI in the test with SF-539 CNS and in the test with UACC-62 melanoma was greater than 100 µM in each case.

In the case of `CCOC(=O)c1csc(NC(=O)CCN(CC)CC)n1`, the TGI is greater than 100 µM with A549 NSCLC; greater than 100 µM in the test with RXF 393 renal; greater than 100 µM with SK-MEL-2 melanoma; 64.1 µM in the test with M14 melanoma; 84.8 µM in the test on COLO 205 colon; greater than 100 µM in the test with OVCAR-4 ovarian. Also, the TGI with NCI-H23 lung is greater than 100 µM; with SW-620 colon, 92.8 µM; with SF-539 CNS, 56.8 µM; with UACC-62 melanoma it was greater than 100 µM.

As for `O=C1C(Cl)=C(N2CCN(C3=C(Cl)C(=O)c4ccccc4C3=O)CC2)C(=O)c2ccccc21`, the TGI is 28.1 µM with A549 NSCLC; 3.02 µM in the test with RXF 393 renal; 3.34 µM with SK-MEL-2 melanoma; 2.87 µM in the test on M14 melanoma; 3.1 µM in the test on COLO 205 colon; 2.94 µM with OVCAR-4 ovarian. Further, the TGI in the test on NCI-H23 lung came out at 3.11 µM; with SW-620 colon it was 2.68 µM; with SF-539 CNS, 3.15 µM; in the test with UACC-62 melanoma, 3.29 µM.

Turning to `Oc1ccc(/C=C/c2cc(O)cc(O)c2)cc1`, the TGI with A549 NSCLC, with RXF 393 renal, in the test on SK-MEL-2 melanoma, with M14 melanoma, with OVCAR-4 ovarian and in the test with NCI-H23 lung was greater than 100 µM in each case. In addition, the TGI with SW-620 colon, with SF-539 CNS and in the test on UACC-62 melanoma was greater than 100 µM each time.

With `COC(=O)C1C(C(=O)OC)N(Cc2ccccc2)C(=O)N1Cc1ccccc1` (stereo not drawn), the TGI in the test on A549 NSCLC, in the test with RXF 393 renal, in the test with SK-MEL-2 melanoma, with M14 melanoma, with COLO 205 colon and with OVCAR-4 ovarian was greater than 100 µM in each case. Further, the TGI in the test on NCI-H23 lung, in the test on SW-620 colon, in the test with SF-539 CNS and in the test on UACC-62 melanoma was greater than 100 µM in each case.

For `C[C@]12CC[C@@H]3c4ccc(O)cc4CC[C@H]3[C@@H]1C/C(=C\c1ccncc1)C2=O`, the TGI with A549 NSCLC is greater than 100 µM; in the test with RXF 393 renal, greater than 100 µM; in the test with SK-MEL-2 melanoma it was 48.7 µM; with M14 melanoma, greater than 100 µM; in the test with COLO 205 colon it was greater than 100 µM; with OVCAR-4 ovarian, greater than 100 µM. Besides, the TGI with NCI-H23 lung is greater than 100 µM; with SW-620 colon it was greater than 100 µM; in the test with SF-539 CNS, 28.9 µM; with UACC-62 melanoma, 50.9 µM.

`CCCc1cc(=O)c2c(C)c3[nH]c4ccc(Cl)cc4c3c(C)c2[nH]1`: the TGI with A549 NSCLC worked out at 4.81 µM; in the test with RXF 393 renal, 3.86 µM; with SK-MEL-2 melanoma, 14.6 µM; in the test on M14 melanoma it was 9.52 µM; in the test with COLO 205 colon, 3.89 µM; with OVCAR-4 ovarian it was 3.43 µM. Moreover, the TGI with NCI-H23 lung turned out to be 10.5 µM; with SW-620 colon, 4.29 µM; with SF-539 CNS, 3.56 µM.

In the case of `N.N.N.O=[N+]([O-])[O-].O=[N+]([O-])[O-].O=[N+]([O-])[O-].O=[N+]([O-])[O-].[Co+3]`, the TGI with A549 NSCLC, in the test on SK-MEL-2 melanoma, with M14 melanoma, in the test with COLO 205 colon, in the test with OVCAR-4 ovarian and in the test on NCI-H23 lung was greater than 100 µM in each case. In addition, the TGI with SW-620 colon, with SF-539 CNS and with UACC-62 melanoma was greater than 100 µM throughout.

On to `COc1ccc2[nH]c(O)c(/C=c3/cc4c(c(-c5cc(OC)c(OC)c(OC)c5)n3)=Nc3ccccc3-4)c2c1`, for which the GI50 in the test with A549 NSCLC was 8.66 µM; in the test on RXF 393 renal, 2.41 µM; with SK-MEL-2 melanoma, 15.9 µM; in the test with M14 melanoma it was 6.32 µM; with COLO 205 colon, 3.67 µM; in the test with OVCAR-4 ovarian, 4.41 µM. The GI50 was 5.28 µM with NCI-H23 lung, 4.96 µM with SW-620 colon, 22.6 µM in the test on SF-539 CNS and 13.6 µM in the test with UACC-62 melanoma. In addition, the TGI in the test on A549 NSCLC was greater than 100 µM; in the test with RXF 393 renal, 41.9 µM; with SK-MEL-2 melanoma, greater than 100 µM; in the test on M14 melanoma, greater than 100 µM; in the test with COLO 205 colon, 21.5 µM; in the test on OVCAR-4 ovarian it was greater than 100 µM. The TGI in the test on NCI-H23 lung, in the test on SW-620 colon, in the test on SF-539 CNS and in the test on UACC-62 melanoma was greater than 100 µM throughout.

For `C#CCCCCC#Cc1ccccc1C(=O)OC`, the TGI in the test with A549 NSCLC is greater than 100 µM; in the test with RXF 393 renal, 95.1 µM; in the test with SK-MEL-2 melanoma, greater than 100 µM; in the test on M14 melanoma it was greater than 100 µM; in the test on COLO 205 colon, greater than 100 µM; in the test with OVCAR-4 ovarian it was greater than 100 µM. In addition, the TGI with NCI-H23 lung is greater than 100 µM; in the test with SW-620 colon, 46.1 µM; in the test on SF-539 CNS, greater than 100 µM; in the test on UACC-62 melanoma, 94.7 µM.

On to `NC(N)=NS(=O)(=O)c1ccc(NCc2c3ccccc3[n+]([O-])c3ccccc23)cc1`, for which the TGI in the test on A549 NSCLC was greater than 100 µM; in the test with SK-MEL-2 melanoma, greater than 100 µM; in the test on M14 melanoma, greater than 100 µM; in the test on COLO 205 colon it was greater than 100 µM; in the test with OVCAR-4 ovarian it was 85.3 µM; with NCI-H23 lung, greater than 100 µM. In addition, the TGI in the test on SW-620 colon and in the test on UACC-62 melanoma was greater than 100 µM each time.

Turning to `CC(C)OP(=O)(OC(C)C)c1c(Nc2ccccc2)n[nH]c1N`, the TGI in the test on A549 NSCLC, in the test with RXF 393 renal, with SK-MEL-2 melanoma, with M14 melanoma, with COLO 205 colon and with OVCAR-4 ovarian was greater than 100 µM each time. Besides, the TGI in the test with NCI-H23 lung, in the test on SW-620 colon, in the test with SF-539 CNS and in the test on UACC-62 melanoma was greater than 100 µM throughout.

On to `O=C(O)CC/C(=N\Nc1nsc2ccccc12)c1ccccc1`, for which the TGI in the test with A549 NSCLC, in the test with RXF 393 renal, with SK-MEL-2 melanoma, with M14 melanoma, in the test with COLO 205 colon and in the test with OVCAR-4 ovarian was greater than 100 µM throughout. For the same molecule, the TGI in the test with NCI-H23 lung was 95.8 µM; in the test with SW-620 colon, greater than 100 µM; with SF-539 CNS it was greater than 100 µM; in the test with UACC-62 melanoma, greater than 100 µM.

On to `CCN1c2ccccc2-n2c(C)nnc2-c2c1n[nH]c2-c1ccccc1`, for which the TGI is greater than 100 µM in the test on A549 NSCLC; greater than 100 µM in the test with RXF 393 renal; 45.6 µM with SK-MEL-2 melanoma; greater than 100 µM in the test with M14 melanoma; greater than 100 µM with COLO 205 colon; greater than 100 µM in the test with OVCAR-4 ovarian. The TGI was greater than 100 µM in the test with NCI-H23 lung, greater than 100 µM in the test with SW-620 colon, greater than 100 µM in the test on SF-539 CNS and 98.9 µM in the test with UACC-62 melanoma.
